Reference: ChEMBL document CHEMBL1134226, “The amide hydrogen of (-)-indolactam-V and benzolactam-V8's plays a critical role in protein kinase C binding and tumor-promoting activities” (Bioorg Med Chem Lett, 2001)

Tests used:
[1] = target: T1, Protein kinase C gamma type (Homo sapiens, UniProt P05129); assay: Inhibition of [3H]phorbol-12,13-dibutyrate (PDBu) binding to Protein kinase C gamma C1a domain
Raji (Homo sapiens) [2] = assay: Tested for epstein barr virus early antigen (EBV-EA) inducing activity in Raji cells at 10e-5 M
[3] = target: T2, Protein kinase C alpha type (Homo sapiens, UniProt P17252); assay: Inhibition of [3H]phorbol-12,13-dibutyrate (PDBu) binding to Protein kinase C alpha C1a domain
HL-60 [4] = assay: Tested for superoxide (O2-) generation inducing activity in differentiated HL-60 cells at 10e-7 M; format: functional, Homo sapiens
[5] = target: T1, Protein kinase C gamma type; assay: Inhibition of [3H]phorbol-12,13-dibutyrate (PDBu) binding to Protein kinase C gamma C1b domain
[6] = target: T3, Protein kinase C beta type (Homo sapiens, UniProt P05771); assay: Inhibition of [3H]phorbol-12,13-dibutyrate (PDBu) binding to Protein kinase C beta C1b domain
Target sequence in this assay (P05771 whole entry, looked up, the tested form may be a part): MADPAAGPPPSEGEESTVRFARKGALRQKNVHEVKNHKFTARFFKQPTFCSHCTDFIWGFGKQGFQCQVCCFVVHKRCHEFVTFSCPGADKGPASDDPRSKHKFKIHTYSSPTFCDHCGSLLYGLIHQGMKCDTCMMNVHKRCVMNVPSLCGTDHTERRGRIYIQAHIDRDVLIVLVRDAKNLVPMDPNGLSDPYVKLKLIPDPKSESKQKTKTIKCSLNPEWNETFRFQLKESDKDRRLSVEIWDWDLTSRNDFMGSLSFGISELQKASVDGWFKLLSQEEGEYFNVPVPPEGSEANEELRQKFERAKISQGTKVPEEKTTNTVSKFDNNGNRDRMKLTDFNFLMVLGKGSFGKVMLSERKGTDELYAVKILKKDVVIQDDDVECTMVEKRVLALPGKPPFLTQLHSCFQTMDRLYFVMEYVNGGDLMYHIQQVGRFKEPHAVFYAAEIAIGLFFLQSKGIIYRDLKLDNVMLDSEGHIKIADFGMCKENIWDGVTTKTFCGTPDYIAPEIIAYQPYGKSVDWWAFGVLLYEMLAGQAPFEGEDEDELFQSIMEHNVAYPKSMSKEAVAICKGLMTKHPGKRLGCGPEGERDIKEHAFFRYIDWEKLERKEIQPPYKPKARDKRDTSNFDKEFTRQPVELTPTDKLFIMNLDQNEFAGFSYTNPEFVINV

[7] = target: T4, Protein kinase C eta type (Homo sapiens, UniProt P24723); assay: Inhibition of [3H]phorbol-12,13-dibutyrate (PDBu) binding to Protein kinase C eta C1b domain
[8] = target: T5, Protein kinase C epsilon type (Homo sapiens, UniProt Q02156); assay: Inhibition of [3H]phorbol-12,13-dibutyrate (PDBu) binding to Protein kinase C epsilon C1a domain
T5 sequence (Q02156 whole entry): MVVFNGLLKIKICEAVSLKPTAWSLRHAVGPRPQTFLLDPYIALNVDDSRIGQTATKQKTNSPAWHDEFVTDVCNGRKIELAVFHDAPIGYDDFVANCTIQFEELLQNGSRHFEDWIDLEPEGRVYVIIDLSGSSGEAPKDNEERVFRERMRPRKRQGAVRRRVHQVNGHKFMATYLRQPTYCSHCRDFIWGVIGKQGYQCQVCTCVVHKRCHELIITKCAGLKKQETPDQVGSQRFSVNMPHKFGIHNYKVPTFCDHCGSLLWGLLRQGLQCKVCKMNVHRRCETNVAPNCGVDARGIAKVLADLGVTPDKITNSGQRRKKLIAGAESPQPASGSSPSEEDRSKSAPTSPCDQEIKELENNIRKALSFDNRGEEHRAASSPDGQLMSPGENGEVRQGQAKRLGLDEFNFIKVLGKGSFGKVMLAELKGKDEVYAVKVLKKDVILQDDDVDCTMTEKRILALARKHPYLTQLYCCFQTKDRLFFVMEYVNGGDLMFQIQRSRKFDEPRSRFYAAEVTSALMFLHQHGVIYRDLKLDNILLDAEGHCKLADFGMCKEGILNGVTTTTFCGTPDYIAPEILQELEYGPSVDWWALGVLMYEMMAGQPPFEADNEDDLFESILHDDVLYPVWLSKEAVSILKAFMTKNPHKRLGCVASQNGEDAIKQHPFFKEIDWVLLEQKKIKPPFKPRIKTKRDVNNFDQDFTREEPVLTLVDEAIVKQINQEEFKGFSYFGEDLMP

[9] = target: T2, Protein kinase C alpha type; assay: Inhibition of [3H]phorbol-12,13-dibutyrate (PDBu) binding to Protein kinase C alpha C1b domain
[10] = target: T5, Protein kinase C epsilon type; assay: Inhibition of [3H]phorbol-12,13-dibutyrate (PDBu) binding to Protein kinase C epsilon C1b domain
[11] = target: T6, Protein kinase C delta type (Homo sapiens, UniProt Q05655); assay: Inhibition of [3H]phorbol-12,13-dibutyrate (PDBu) binding to Protein kinase C delta C1b domain
[12] = target: T4, Protein kinase C eta type; assay: Inhibition of [3H]phorbol-12,13-dibutyrate (PDBu) binding to Protein kinase C eta C1a domain
[13] = target: Protein kinase C theta type (Homo sapiens, UniProt Q04759); assay: Inhibition of [3H]phorbol-12,13-dibutyrate (PDBu) binding to Protein kinase C theta C1b domain
HL-60 [14] = assay: Tested for superoxide (O2-) generation inducing activity in differentiated HL-60 cells at 10e-5 M; format: functional, Homo sapiens
[15] = target: T6, Protein kinase C delta type; assay: Inhibition of [3H]phorbol-12,13-dibutyrate (PDBu) binding to Protein kinase C delta C1a domain
Raji (Homo sapiens) [16] = assay: Tested for epstein barr virus early antigen (EBV-EA) inducing activity in Raji cells at 10e-6 M
Raji (Homo sapiens) [17] = assay: Tested for epstein barr virus early antigen (EBV-EA) inducing activity in Raji cells at 10e-4.5 M
[18] = target: T3, Protein kinase C beta type; assay: Inhibition of [3H]phorbol-12,13-dibutyrate (PDBu) binding to Protein kinase C beta C1a
Target sequence in this assay (P05771 whole entry, the tested form may be a part): as the sequence (P05771 whole entry, looked up, the tested form may be a part) above

HL-60 [19] = assay: Tested for superoxide (O2-) generation inducing activity in differentiated HL-60 cells at 10e-6 M; format: functional, Homo sapiens
HL-60 [20] = assay: Tested for superoxide (O2-) generation inducing activity in differentiated HL-60 cells at 10e-4 M; format: functional, Homo sapiens
HL-60 [21] = assay: Tested for epstein barr virus early antigen (EBV-EA) inducing activity in […] at 10e-7 M; format: functional, Homo sapiens

T4 sequence (P24723 whole entry, the tested form may be a part): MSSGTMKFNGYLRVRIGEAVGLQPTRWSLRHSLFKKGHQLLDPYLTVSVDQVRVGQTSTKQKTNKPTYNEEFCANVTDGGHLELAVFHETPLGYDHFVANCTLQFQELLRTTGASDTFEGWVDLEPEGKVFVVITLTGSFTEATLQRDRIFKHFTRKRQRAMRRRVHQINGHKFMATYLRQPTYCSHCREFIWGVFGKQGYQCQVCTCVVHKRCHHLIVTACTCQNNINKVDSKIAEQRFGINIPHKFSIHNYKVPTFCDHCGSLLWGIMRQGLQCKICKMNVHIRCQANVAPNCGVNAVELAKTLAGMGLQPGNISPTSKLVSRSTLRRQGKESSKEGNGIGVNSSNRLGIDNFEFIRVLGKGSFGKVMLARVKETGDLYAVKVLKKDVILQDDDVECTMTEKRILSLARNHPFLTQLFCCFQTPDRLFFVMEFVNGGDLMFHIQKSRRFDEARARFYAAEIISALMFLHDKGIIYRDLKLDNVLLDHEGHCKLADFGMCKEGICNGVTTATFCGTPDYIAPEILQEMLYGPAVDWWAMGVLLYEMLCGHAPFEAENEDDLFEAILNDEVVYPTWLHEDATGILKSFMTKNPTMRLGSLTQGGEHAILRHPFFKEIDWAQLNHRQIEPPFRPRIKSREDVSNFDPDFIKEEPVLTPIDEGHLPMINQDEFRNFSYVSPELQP
T6 sequence (Q05655 whole entry, the tested form may be a part): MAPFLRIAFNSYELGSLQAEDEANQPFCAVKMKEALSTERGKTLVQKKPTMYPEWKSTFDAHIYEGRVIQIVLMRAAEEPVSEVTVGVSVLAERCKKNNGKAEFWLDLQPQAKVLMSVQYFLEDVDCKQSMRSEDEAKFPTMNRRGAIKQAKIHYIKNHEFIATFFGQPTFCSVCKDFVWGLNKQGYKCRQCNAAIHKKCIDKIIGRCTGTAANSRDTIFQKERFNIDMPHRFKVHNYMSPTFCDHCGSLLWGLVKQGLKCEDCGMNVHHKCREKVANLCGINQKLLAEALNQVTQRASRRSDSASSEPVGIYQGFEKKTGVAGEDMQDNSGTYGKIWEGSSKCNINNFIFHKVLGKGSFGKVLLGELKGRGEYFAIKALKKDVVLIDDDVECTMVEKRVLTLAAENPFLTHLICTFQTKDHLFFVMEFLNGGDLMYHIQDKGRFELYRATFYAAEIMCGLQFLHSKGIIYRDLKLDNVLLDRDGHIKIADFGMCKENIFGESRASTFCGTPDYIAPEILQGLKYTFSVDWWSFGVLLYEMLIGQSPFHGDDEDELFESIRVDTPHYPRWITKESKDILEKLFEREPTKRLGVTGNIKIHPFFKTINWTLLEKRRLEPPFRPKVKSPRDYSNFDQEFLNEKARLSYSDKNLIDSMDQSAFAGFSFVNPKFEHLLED
Sequence of Protein kinase C theta type (Q04759 whole entry, the tested form may be a part): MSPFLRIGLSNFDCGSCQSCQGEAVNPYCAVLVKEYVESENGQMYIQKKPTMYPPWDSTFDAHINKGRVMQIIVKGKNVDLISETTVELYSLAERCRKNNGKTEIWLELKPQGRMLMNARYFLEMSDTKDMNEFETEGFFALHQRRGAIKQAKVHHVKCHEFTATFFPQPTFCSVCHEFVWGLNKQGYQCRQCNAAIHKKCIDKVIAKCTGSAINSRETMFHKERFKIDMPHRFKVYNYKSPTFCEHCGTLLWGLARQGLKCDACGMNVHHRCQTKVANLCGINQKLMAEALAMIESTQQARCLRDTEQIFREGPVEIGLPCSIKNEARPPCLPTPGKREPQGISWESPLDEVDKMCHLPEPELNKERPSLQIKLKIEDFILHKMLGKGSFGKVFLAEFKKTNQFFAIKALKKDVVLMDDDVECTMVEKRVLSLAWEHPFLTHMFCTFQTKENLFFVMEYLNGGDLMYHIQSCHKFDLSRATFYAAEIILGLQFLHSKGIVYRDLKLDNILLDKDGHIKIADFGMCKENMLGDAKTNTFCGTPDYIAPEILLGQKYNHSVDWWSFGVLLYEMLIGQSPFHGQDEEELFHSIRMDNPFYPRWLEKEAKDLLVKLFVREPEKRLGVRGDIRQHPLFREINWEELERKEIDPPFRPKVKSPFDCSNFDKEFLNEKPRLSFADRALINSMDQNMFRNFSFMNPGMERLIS

| Ki [1] [nM] | Ki [3] [nM] | Ki [5] [nM] | Ki [6] [nM] | Ki [7] [nM] | Ki [8] [nM] | Ki [9] [nM] | Ki [10] [nM] | Ki [11] [nM] | Ki [12] [nM] | Ki [13] [nM] | Ki [15] [nM] | Ki [18] [nM] | Structure (SMILES) | Activity (Raji (Homo sapiens) [2]) [%] | Activity (HL-60 [4]) [nM min-1 ml-1] | Activity (HL-60 [14]) [nM min-1 ml-1] | Activity (Raji (Homo sapiens) [16]) [%] | Activity (Raji (Homo sapiens) [17]) [%] | Activity (HL-60 [19]) [nM min-1 ml-1] | further results |
| --- | --- | --- | --- | --- | --- | --- | --- | --- | --- | --- | --- | --- | --- | --- | --- | --- | --- | --- | --- | --- |
| 1660 | 323 | 151 | 261 | 6.4 | 8360 | 4690 | 13.1 | 14.6 | 2490 | 13.2 | 2770 | 442 | CCCCCCCCCCc1ccc2c(c1)C[C@@H](CO)NC(=O)[C@H](C(C)C)N2C | 11.3 | 0.33 | 3.04 | 6.7 | 17.6 | 0.31 | – |
| 6320 | > 10000 | 17600 | 22000 | 120 | > 10000 | > 10000 | 262 | 1160 | > 10000 | 1100 | 70600 | > 10000 | CCCCCCCCCCc1ccc2c(c1)C[C@@H](CO)OC(=O)[C@H](C(C)C)N2C | 1.9 | – | 0.2 | 0.8 | 5 | 0.11 | Activity (HL-60 [20]): 0.19 nM min-1 ml-1 |
| – | – | – | – | – | – | – | – | – | – | – | – | – | CC(C)[C@H]1C(=O)N[C@H](CO)Cc2c[nH]c3cccc(c23)N1C [INDOLACTUM] | 28.9 | 0.05 | 3.18 | 33.5 | – | 3.19 | Activity (HL-60 [21]): 16.8% |
| – | – | – | – | – | – | – | – | – | – | – | – | – | CCCCCCCCCCCCCC(=O)O[C@@H]1[C@@H](C)[C@@]2(O)[C@@H](C=C(CO)C[C@]3(O)C(=O)C(C)=C[C@@H]23)[C@@H]2C(C)(C)[C@]12OC(C)=O [PHORBOL MYRISTATE ACETATE] | – | 1.32 | – | – | – | – | – |
